Test results as given in PubChem BioAssay (NCI).
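Each compound was tested at five concentrations against cells in 96-well plates for 48 hours. At the GI50, growth is halved. TGI: concentration producing complete growth inhibition.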

Experiments:
Assay in all cases: NCI-60 cell line screen, 48 h
786-0 renal = system: 786-0 renal
A498 renal = system: A498 renal
A549 NSCLC = system: A549 NSCLC
ACHN renal = system: ACHN renal
BT-549 breast = system: BT-549 breast
CAKI-1 renal = system: CAKI-1 renal
CCRF-CEM leukemia = system: CCRF-CEM leukemia
COLO 205 colon = system: COLO 205 colon
EKVX NSCLC = system: EKVX NSCLC
HCC-2998 colon = system: HCC-2998 colon
HCT-116 colon = system: HCT-116 colon
HCT-15 colon = system: HCT-15 colon
HL-60(TB) leukemia = system: HL-60(TB) leukemia
HOP-62 NSCLC = system: HOP-62 NSCLC
HOP-92 NSCLC = system: HOP-92 NSCLC
HS 578T breast = system: HS 578T breast
HT29 colon = system: HT29 colon
IGROV1 ovarian = system: IGROV1 ovarian
K-562 leukemia = system: K-562 leukemia
KM12 colon = system: KM12 colon
LOX IMVI melanoma = system: LOX IMVI melanoma
M14 melanoma = system: M14 melanoma
MALME-3M melanoma = system: MALME-3M melanoma
MCF7 breast = system: MCF7 breast
MDA-MB-231 breast = system: MDA-MB-231 breast
MDA-MB-435 = system: MDA-MB-435
MDA-N = system: MDA-N
MOLT-4 leukemia = system: MOLT-4 leukemia
NCI-H226 lung = system: NCI-H226 lung
NCI-H23 lung = system: NCI-H23 lung
NCI-H460 lung = system: NCI-H460 lung
NCI/ADR-RES ovarian = system: NCI/ADR-RES ovarian
OVCAR-3 ovarian = system: OVCAR-3 ovarian
OVCAR-4 ovarian = system: OVCAR-4 ovarian
OVCAR-5 ovarian = system: OVCAR-5 ovarian
OVCAR-8 ovarian = system: OVCAR-8 ovarian
PC-3 prostate = system: PC-3 prostate
RXF 393 renal = system: RXF 393 renal
SF-295 CNS = system: SF-295 CNS
SF-539 CNS = system: SF-539 CNS
SK-MEL-2 melanoma = system: SK-MEL-2 melanoma
SK-MEL-28 melanoma = system: SK-MEL-28 melanoma
SK-MEL-5 melanoma = system: SK-MEL-5 melanoma
SK-OV-3 ovarian = system: SK-OV-3 ovarian
SN12C renal = system: SN12C renal
SNB-19 CNS = system: SNB-19 CNS
SR leukemia = system: SR leukemia
SW-620 colon = system: SW-620 colon
TK-10 renal = system: TK-10 renal
U251 CNS = system: U251 CNS
UACC-257 melanoma = system: UACC-257 melanoma
UACC-62 melanoma = system: UACC-62 melanoma
UO-31 renal = system: UO-31 renal
DU-145 prostate = system: DU-145 prostate
NCI-H522 lung = system: NCI-H522 lung
SF-268 CNS = system: SF-268 CNS
T-47D breast = system: T-47D breast
RPMI-8226 leukemia = system: RPMI-8226 leukemia
SNB-75 CNS = system: SNB-75 CNS

## Cc1ccc(S(=O)(=O)N=Nc2c(O)[nH]c3c(Cl)cc(Cl)cc23)cc1
786-0 renal
  TGI: > 100 µM
A498 renal
  TGI: > 100 µM
A549 NSCLC
  TGI: > 100 µM
ACHN renal
  TGI: > 100 µM
BT-549 breast
  TGI: > 100 µM
CAKI-1 renal
  TGI: > 100 µM
CCRF-CEM leukemia
  TGI: > 100 µM
COLO 205 colon
  TGI: > 100 µM
EKVX NSCLC
  TGI: > 100 µM
HCC-2998 colon
  TGI: > 100 µM
HCT-116 colon
  TGI: > 100 µM
HCT-15 colon
  TGI: > 100 µM
HL-60(TB) leukemia
  TGI: > 100 µM
HOP-62 NSCLC
  TGI: > 100 µM
HOP-92 NSCLC
  TGI: > 100 µM
HS 578T breast
  TGI: > 100 µM
HT29 colon
  TGI: > 100 µM
IGROV1 ovarian
  TGI: > 100 µM
K-562 leukemia
  TGI: > 100 µM
KM12 colon
  TGI: > 100 µM
LOX IMVI melanoma
  TGI: > 100 µM
M14 melanoma
  TGI: > 100 µM
MALME-3M melanoma
  TGI: > 100 µM
MCF7 breast
  TGI: > 100 µM
MDA-MB-231 breast
  TGI: > 100 µM
MDA-MB-435
  TGI: > 100 µM
MDA-N
  TGI: > 100 µM
MOLT-4 leukemia
  TGI: > 100 µM
NCI-H226 lung
  TGI: > 100 µM
NCI-H23 lung
  TGI: > 100 µM
NCI-H460 lung
  TGI: > 100 µM
NCI/ADR-RES ovarian
  TGI: > 100 µM
OVCAR-3 ovarian
  TGI: > 100 µM
OVCAR-4 ovarian
  TGI: > 100 µM
OVCAR-5 ovarian
  TGI: > 100 µM
OVCAR-8 ovarian
  TGI: > 100 µM
PC-3 prostate
  TGI: > 100 µM
RXF 393 renal
  TGI: > 100 µM
SF-295 CNS
  TGI: > 100 µM
SF-539 CNS
  TGI: > 100 µM
SK-MEL-2 melanoma
  TGI: > 100 µM
SK-MEL-28 melanoma
  TGI: > 100 µM
SK-MEL-5 melanoma
  TGI: > 100 µM
SK-OV-3 ovarian
  TGI: > 100 µM
SN12C renal
  TGI: > 100 µM
SNB-19 CNS
  TGI: > 100 µM
SR leukemia
  TGI: > 100 µM
SW-620 colon
  TGI: > 100 µM
TK-10 renal
  TGI: > 100 µM
U251 CNS
  TGI: > 100 µM
UACC-257 melanoma
  TGI: > 100 µM
UACC-62 melanoma
  TGI: > 100 µM
UO-31 renal
  TGI: > 100 µM

## CC(=O)c1cc2ccccc2n(O)c1=N
786-0 renal
  TGI: > 100 µM
A498 renal
  TGI: > 100 µM
A549 NSCLC
  TGI: > 100 µM
ACHN renal
  TGI: > 100 µM
CAKI-1 renal
  TGI: > 100 µM
CCRF-CEM leukemia
  TGI: > 100 µM
COLO 205 colon
  TGI: > 100 µM
DU-145 prostate
  TGI: > 100 µM
EKVX NSCLC
  TGI: > 100 µM
HCC-2998 colon
  TGI: > 100 µM
HCT-116 colon
  TGI: > 100 µM
HCT-15 colon
  TGI: > 100 µM
HL-60(TB) leukemia
  TGI: > 100 µM
HOP-62 NSCLC
  TGI: > 100 µM
HOP-92 NSCLC
  TGI: > 100 µM
HS 578T breast
  TGI: > 100 µM
HT29 colon
  TGI: > 100 µM
IGROV1 ovarian
  TGI: > 100 µM
KM12 colon
  TGI: > 100 µM
LOX IMVI melanoma
  TGI: > 100 µM
M14 melanoma
  TGI: > 100 µM
MALME-3M melanoma
  TGI: > 100 µM
MCF7 breast
  TGI: > 100 µM
MDA-MB-231 breast
  TGI: > 100 µM
MDA-MB-435
  TGI: > 100 µM
MDA-N
  TGI: > 100 µM
MOLT-4 leukemia
  TGI: > 100 µM
NCI-H226 lung
  TGI: > 100 µM
NCI-H23 lung
  TGI: > 100 µM
NCI-H460 lung
  TGI: > 100 µM
NCI-H522 lung
  TGI: > 100 µM
NCI/ADR-RES ovarian
  TGI: > 100 µM
OVCAR-3 ovarian
  TGI: > 100 µM
OVCAR-4 ovarian
  TGI: > 100 µM
OVCAR-5 ovarian
  TGI: > 100 µM
OVCAR-8 ovarian
  TGI: > 100 µM
PC-3 prostate
  TGI: > 100 µM
RXF 393 renal
  TGI: > 100 µM
SF-268 CNS
  TGI: > 100 µM
SF-295 CNS
  TGI: > 100 µM
SF-539 CNS
  TGI: > 100 µM
SK-MEL-2 melanoma
  TGI: > 100 µM
SK-MEL-28 melanoma
  TGI: > 100 µM
SK-MEL-5 melanoma
  TGI: > 100 µM
SK-OV-3 ovarian
  TGI: > 100 µM
SN12C renal
  TGI: > 100 µM
SR leukemia
  TGI: > 100 µM
T-47D breast
  TGI: > 100 µM
TK-10 renal
  TGI: > 100 µM
U251 CNS
  TGI: > 100 µM
UACC-257 melanoma
  TGI: > 100 µM
UACC-62 melanoma
  TGI: > 100 µM

## CSc1ccc(/C=C2\C=C(CC(=O)NCc3ccc(C(=O)c4ccccc4)cc3)c3cc(F)ccc32)cc1
786-0 renal
  GI50: 0.125 µM
  TGI: 2.66 µM
A498 renal
  GI50: 0.0364 µM
  TGI: 0.902 µM
A549 NSCLC
  GI50: 0.137 µM
  TGI: 4.8 µM
ACHN renal
  GI50: 0.261 µM
  TGI: 12.3 µM
BT-549 breast
  GI50: 1.43 µM
  TGI: 21.9 µM
CAKI-1 renal
  GI50: 0.0741 µM
  TGI: 8.23 µM
CCRF-CEM leukemia
  GI50: 0.0337 µM
  TGI: 38.9 µM
COLO 205 colon
  GI50: 0.19 µM
  TGI: 0.431 µM
DU-145 prostate
  GI50: 0.0401 µM
  TGI: 0.877 µM
EKVX NSCLC
  GI50: 0.423 µM
  TGI: > 100 µM
HCC-2998 colon
  GI50: 0.0544 µM
  TGI: 0.756 µM
HCT-116 colon
  GI50: 0.0367 µM
  TGI: 2.76 µM
HCT-15 colon
  GI50: 0.0492 µM
  TGI: > 51.3 µM
HL-60(TB) leukemia
  GI50: 0.0409 µM
  TGI: 0.208 µM
HOP-62 NSCLC
  GI50: 0.0633 µM
  TGI: 3.38 µM
HOP-92 NSCLC
  GI50: 0.179 µM
  TGI: 6 µM
HS 578T breast
  GI50: 0.0457 µM
  TGI: 13 µM
HT29 colon
  GI50: 0.0368 µM
  TGI: 2.73 µM
IGROV1 ovarian
  GI50: 0.0848 µM
  TGI: 17.7 µM
K-562 leukemia
  GI50: 0.0393 µM
  TGI: > 100 µM
KM12 colon
  GI50: 0.0335 µM
  TGI: 1.48 µM
LOX IMVI melanoma
  GI50: 0.069 µM
  TGI: 6.47 µM
M14 melanoma
  GI50: 0.0449 µM
  TGI: 4.16 µM
MALME-3M melanoma
  GI50: 0.215 µM
  TGI: 44.7 µM
MCF7 breast
  TGI: 12.2 µM
MDA-MB-231 breast
  GI50: 0.0643 µM
  TGI: 5.3 µM
MDA-MB-435
  GI50: < 0.0112 µM
  TGI: 0.0515 µM
MOLT-4 leukemia
  GI50: 0.15 µM
  TGI: > 36.7 µM
NCI-H226 lung
  GI50: 0.0951 µM
  TGI: 0.903 µM
NCI-H23 lung
  GI50: 0.036 µM
  TGI: 2.89 µM
NCI-H460 lung
  GI50: 0.0377 µM
  TGI: 4.39 µM
NCI-H522 lung
  GI50: 0.0287 µM
  TGI: 0.211 µM
NCI/ADR-RES ovarian
  GI50: 0.0328 µM
  TGI: 0.187 µM
OVCAR-3 ovarian
  GI50: 0.0245 µM
  TGI: 0.0643 µM
OVCAR-4 ovarian
  GI50: 0.127 µM
  TGI: 20.2 µM
OVCAR-5 ovarian
  GI50: 0.0618 µM
  TGI: 24.9 µM
OVCAR-8 ovarian
  GI50: 0.0497 µM
  TGI: 8.12 µM
PC-3 prostate
  GI50: 0.0473 µM
  TGI: 13.1 µM
RPMI-8226 leukemia
  GI50: 0.0648 µM
  TGI: > 68.3 µM
RXF 393 renal
  GI50: 0.0307 µM
  TGI: 0.292 µM
SF-268 CNS
  GI50: 0.138 µM
  TGI: 15.1 µM
SF-295 CNS
  GI50: 0.0453 µM
  TGI: 6.9 µM
SF-539 CNS
  GI50: 0.0381 µM
  TGI: 1.17 µM
SK-MEL-2 melanoma
  GI50: 0.049 µM
  TGI: 7.04 µM
SK-MEL-28 melanoma
  GI50: 0.0688 µM
  TGI: 19.8 µM
SK-MEL-5 melanoma
  GI50: 0.035 µM
  TGI: 0.365 µM
SK-OV-3 ovarian
  GI50: 0.0399 µM
  TGI: 0.704 µM
SN12C renal
  GI50: 0.059 µM
  TGI: 23 µM
SNB-19 CNS
  GI50: 0.0705 µM
  TGI: > 100 µM
SNB-75 CNS
  GI50: 0.0433 µM
  TGI: 6.25 µM
SR leukemia
  GI50: 0.0306 µM
  TGI: 26.2 µM
SW-620 colon
  GI50: 0.0431 µM
  TGI: > 100 µM
T-47D breast
  GI50: 1.99 µM
  TGI: 44 µM
TK-10 renal
  GI50: 0.329 µM
  TGI: 6.93 µM
U251 CNS
  GI50: 0.0379 µM
  TGI: 2.33 µM
UACC-257 melanoma
  GI50: 0.572 µM
  TGI: > 100 µM
UACC-62 melanoma
  GI50: 0.0591 µM
  TGI: 10.7 µM
UO-31 renal
  GI50: 0.36 µM
  TGI: 13 µM
